Values quoted from earlier work, collected in patent US11426379B2, “Combination of local and systemic therapies for enhanced treatment of dermatologic conditions” (The Rockefeller University, priority 2017, dated 2022).

Test system: rabbit skin
Settings: intradermal injection, presence of light, reversible with beta-carotene

**Q.** With `O=C1OC2(c3cc(I)c(O)c(I)c3Oc3c2cc(I)c(O)c3I)c2c(Cl)c(Cl)c(Cl)c(Cl)c21` [rose bengal, 4,5,6,7-tetrachloro-2′,4′,5′,7′-tetraiodofluorescein] as the compound, how does the “polymorphonuclear leukocyte accumulation, histamine release and erythema” value read?
**A.** polymorphonuclear leukocyte accumulation and histamine release with accompanying increased erythema
